Results from patent US11324698B2, “Sterically stabilized carrier for aerosol therapeutics, compositions and methods for treating the respiratory tract of a mammal” (VGSK Technologies, Inc., priority 2003, dated 2022).

Columns and labels:
[1] = BUD alone; cited from earlier work
[2] = system: sensitized mice; test: Preliminary dose-response study of daily nebulized BUD in sensitized mice; assay type: in vivo; conditions: daily nebulization
Procedure: The dose of BUD chosen was based on preliminary dose-response studies with 5 to 50 μg of BUD as follows.
Each day, 5, 10, 15, 20 or 50 μg of BUD was administered via nebulization to groups of sensitized mice, and the dose-dependent effects on the inflammatory parameters were evaluated.

Structure (SMILES): CCCC1O[C@@H]2C[C@H]3[C@@H]4CCC5=CC(=O)C=C[C@]5(C)[C@H]4[C@@H](O)C[C@]3(C)[C@]2(C(=O)CO)O1 (stereo partly drawn) [Daily BUD, budesonide]
- effective life in the lungs [1]: no more than one day
- toxicity to the spleen, liver, bone morrow or gastrointestinal tract ([2]; 20 μg/ml dose of BUD, histopathologic examination): without evidence of toxicity
- granulomas or abnormalities in tissues ([2]; preliminary dose-response study): no granulomas or abnormalities in any of the tissues evaluated
